Assay results reported in patent US5342604A (The Dow Chemical Company, priority 1992, dated 1994).
Structures can show the parent of a compound that is named as a salt. Where two headings read alike, the source gives them in different places. Values belong to the compound of their own block, whether it stands above or below them.

Legend:
[1] = In vivo screening of bifunctional chelates: biodistribution, percent injected dose in liver; details: rat, i.v. tail vein, 2 hours
Description: (§3) Also samarium was injected as samarium chloride in unchelated form.
(§4) Sprague-Dawley rats weighing from 150 to 200 g were purchased from Charles River Laboratories. These animals were placed in cages and fed water and food ad libitum. The animals were acclimated for at least five days before use. Prior to injection of complex, the animals were placed under a heat lamp (15 to 30 minutes) to dilate the tail vein. Then, the animal was placed in a restraining cage, the tail cleaned with an alcohol swipe, and the animal injected (50 to 200 μl) via the tail vein. After injection, the animal was placed in another cage for two hours after which time the animal was sacrificed by cervical dislocation. The animal was then dissected, the parts rinsed with deionized H2 O, patted dry, and weighed into a tared counting vial. Whatever size of injection was made, at least three standards of the same material were prepared and counted with the animal parts.

[2] = Percent complex determination, samarium complexes (Sephadex C-25 cation exchange); assay type: physicochemical
Description: (§1) A disposable 10 ml plastic (Biorad) column was filled with 1 to 2 ml of water-swelled Sephadex™ C-25 cation exchange resin. The water was pressure eluted to the top of the resin. Fifteen μl of the complex (or more if counts were low) were added to the top of the resin. This was followed by 2 ml of 4:1 (V:V) isotonic saline:conc. ammonium hydroxide solution as an eluent which was allowed to drip into a counting tube. This was also pressure eluted to the top of the resin. An additional 2 ml of the eluent were added and the column pressure eluted to remove all liquid. The dried resin was then placed in a third counting tube and the three tubes counted on a NaI well counter using a Canberra multichannel analyzer linked to a computer. The percent complex was determined by dividing the number of counts in the two elutions by the total counts in the elutions plus the column, all times 100.
Samarium complexes were formed as described previously for yttrium complexes except that 0.0003M samarium was prepared by dissolution of Sm2 03 (348.7 g mole) in 0.1M hydrochloric acid. […] Percent complex determination was made in the same manner as for the yttrium complex.

[3] = Percent complex determination, yttrium complexes (Sephadex C-25 cation exchange); assay type: physicochemical; details: Y
Description: The yttrium and/or samarium complexes of several of the compounds were prepared and percent complexation determined as follows:
Complexes were made by preparing a 0.0003M yttrium solution in water. (YCl3 ·6H2 O, 303.26 g/mole; Y(OAc)3, 12.1% H2 0). Radioactive YCl3 (Oakridge National Laboratories) was added to give the desired number of counts. Ten μl of ligand solution (at 0.03M) were added to 990 μl of the Y solution, giving a ligand-to-metal ratio of 1:1. (Ten times the amount of ligand solution was used for a 10:1 ligand to metal ratio.) The pH was then adjusted to 7.4 using microliter quantities of hydrochloric acid or sodium hydroxide. The solution was then tested for the amount of complexed yttrium using the cation exchange method given below.
as §1, with “100. By this method, uncomplexed yttrium was retained on the column.” for “100.”

[4] = rat, in vivo, iv, 120 min
Description: as §3, §4

[5] = rat, in vivo, 120 min
Description: Complexes were prepared by mixing a solution of ligand and metal then adjusting the pH to 7-8. The amount of metal that was complexed to ligand was determined by cation exchange chromatography. Free metal was retained by the resin, metal in the form of a complex was not.
One-hundred μl of the complexes were injected into the tail vein of three Sprague Dawley rats. Two hours after injection, the rats were killed by cervical dislocation and samples of tissues were taken. The tissues were weighed and the amount of radiation in each tissue determined by measuring the number of counts using a NaI well counter and comparing them to standards. […] The amount in bone was 25 times the % dose in a femur. […] Non-radioactive metal was used to obtain the desired ligand to metal ratios and tracer radioactive metal was used to obtain the biodistribution.

[6] = Lability of yttrium complexes on addition of excess metal; assay type: physicochemical; details: Y
Description: as §1, with “100. By this method, uncomplexed yttrium was retained on the column.” for “100.”
The 1:1 complex of yttrium with 1-(p-aminobenzyl)diethylenetriaminepentaacetic acid (ABDTPA), a well known bifunctional chelant used in the literature, and with the ligand of Example 2 (Now Ex. XVI) and Example 12 (now Ex. XVII) were prepared using the techniques described earlier. Several 100 microliter aliquots were then withdrawn into separate centrifuge tubes. Excess metal was added such that the total volume change is minimized and the time noted. One-half hour after metal addition, the percent complex was determined by the Sephadex™ C-25 method and this was compared to the original amount of complex. The percent complex versus added metal gives an indication as to the lability of the ligand-metal complex. Results are given below and are compared to the EDTA-yttrium complex.

[7] = Inertness of samarium complex to pH change; assay type: physicochemical
Description: as §1, with “100. By this method, uncomplexed yttrium was retained on the column.” for “100.”
(§2) One portion was treated with 1-2 μl portions of 0.1N hydrochloric acid until the pH was lowered and the other portion was treated with 0.1N sodium hydroxide to bring the pH up. The complexes were allowed to set for 5-10 minutes at each pH change, then they were sampled to determine the percent complexation at that pH by the method described for Examples 16 through 33.
as §2, with “1-2 μportions” for “1-2 μl portions”, “of 1.0N” for “of 0.1N”, “with 0.1N, 1.0N and 50 weight %” for “with 0.1N”, “for about 5” for “for 5-10”

[8] = Sm, ligand/metal ratio not stated
[9] = Sm, ligand/metal ratio about 50:1

Compound: CC(=O)Nc1ccc(O)c(CN(CCN(CC(=O)O)Cc2cc(NC(C)=O)ccc2O)CC(=O)O)c1 [Example U, N,N'-DI(2-HYDROXY, 5-ACETAMIDOBENZYL)ETHYLENEDIAMINE-N,N'-DIACETIC ACID, reference compound]
% Injected Dose in Liver [1, 8]: 12%

Compound: 2-[(2-[(2-[(2-{[BIS(CARBOXYMETHYL)]AMINO}ETHYL) (CARBOXYMETHYL)AMINO]ETHYL) (CARBOXYMETHYL)AMINO]ETHYL)(CARBOXYMETHYL)AMINO]-2-[5-ACETAMIDO2-(CARBOXYMETHYLOXY) PHENYL]ETHANOIC ACID AND 2[(2-[(2-{[BIS(CARBOXYMETHYL)]AMINO}ETHYL)(CARBOXYMETHYL) AMINO]ETHYL)(2-{[BIS(CARBOXYMETHYL)]AMINO}ETHYL)AMINO]-2-[5-ACETAMIDO-2-(CARBOXYMETHYLOXY) PHENYL]ETHANOIC ACID [Example 9]
% Complex ([2]; Sm, ligand/metal 10:1): > 99%
% Injected Dose in Liver ([1]; Sm, ligand/metal 10:1): 2.8%

% Complex [2, 9]: 96%
Compound: 2-[BIS(2-{[(BIS(CARBOXYMETHYL)]AMINO}ETHYL) AMINO]-2-[5-AMINO-2-(CARBOXYMETHYLOXY)PHENYL]ETHANOIC ACID AND 2-[{2-[(2-{[BIS(CARBOXYMETHYL)]AMINO}ETHYL)(CARBOXYMETHYL)AMINO]ETHYL} (CARBOXYMETHYL)AMINO]-2-[5-AMINO-2-(CARBOXYMETHYLOXY)PHENYL]ETHANOIC ACID [Example 7]

Compound: 2-[bis(2-{[(bis(carboxymethyl)]amino}ethyl) amino]-2-[5-acetamido-2-(carboxymethyloxy)phenyl]ethanoic acid and 2-[{2-[(2-{[bis(carboxymethyl)]amino}ethyl)(carboxymethyl)amino]ethyl} (carboxymethyl)amino]-2-[5-acetamido-2-(carboxymethyloxy)phenyl]ethanoic acid [Example 6]
% Complex ([2]; Sm, ligand/metal 10:1): > 99%
% Injected Dose in Liver ([1]; Sm, ligand/metal 10:1): 0.38%

% Complex ([3]; ligand/metal 10:1): 99%
% Injected Dose in Liver [4]: 0.37%
Compound: CC(=O)Nc1cc(CN(CCN(CC(=O)O)CC(=O)O)CC(=O)O)c(O)c(CN(CC(=O)O)CC(=O)O)c1 [Example 15, 2-({[BIS(CARBOXYMETHYL)]AMINO}METHYL)-6-{[({[BIS(CARBOXYMETHYL)]AMINO}ETHYL)((CARBOXYMETHYL)AMINO]METHYL}-4-(ACETAMIDO)PHENOL]

% Complex ([3]; ligand/metal 10:1): > 99%
% Injected Dose in Liver [4]: 1.4%
Compound: CC(=O)Nc1ccc(O)c(C(C(=O)O)N(CC#N)CCN(CC(=O)O)CC(=O)O)c1 (stereo not shown) [Example 4, 2-[(2-{[bis(carboxymethyl)]amino}ethyl) (cyanomethyl)amino]-2-(5-acetamido-2-hydroxyphenyl)ethanoic acid]

% Complex ([3]; ligand/metal 10:1): > 99%
% Injected Dose in Liver [4]: 0.22%
Compound: Nc1ccc(OCC(=O)O)c(C(C(=O)O)N(CCN(CC(=O)O)CC(=O)O)CC(=O)O)c1 (stereo not shown) [Example 3, 2-[(2-{[BIS(CARBOXYMETHYL)]AMINO}ETHYL) (CARBOXYMETHYL)AMINO]-2-[5-AMINO-2-(CARBOXYMETHYLOXY)PHENYL]ETHANOIC ACID, PENTA SODIUM SALT]

% Complex ([3]; ligand/metal 10:1): 98%
% Injected Dose in Liver [4]: 0.87%
biodistribution, blood (% dose) [5]: 0.57%
biodistribution, bone (% dose) [5]: 56.1%
biodistribution, liver (% dose) [5]: 0.87%
biodistribution, muscle (% dose) [5]: 0.78%
biodistribution, spleen (% dose) [5]: 0.03%
Compound: CC(=O)Nc1ccc(O)c(C(NCCN(CC(=O)O)CC(=O)O)C(=O)O)c1 (stereo not shown) [Example 1, 2-[(2-{[bis(carboxymethyl)]amino}ethyl)amino]-2-(5-acetamido-2-hydroxyphenyl)ethanoic acid]

% Complex ([3]; ligand/metal 10:1): > 99%
% Complex ([2]; Sm, ligand/metal 10:1): > 99%
% Complex ([6]; Metal/Ligand Molar Ratio 1): 99%
% Complex ([6]; Metal/Ligand Molar Ratio 10, one-half hour after metal addition): 94%
% Complex ([6]; Metal/Ligand Molar Ratio 100, one-half hour after metal addition): 84%
% Complex ([6]; Metal/Ligand Molar Ratio 500, one-half hour after metal addition): 75%
% Injected Dose in Liver [4]: 0.22%
Compound: CC(=O)Nc1ccc(OCC(=O)O)c(C(C(=O)O)N(CCN(CC(=O)O)CC(=O)O)CC(=O)O)c1 (stereo not shown) [Example 2, 2-[(2-{[bis(carboxymethyl)]amino}ethyl) (carboxymethyl)amino]-2-[5-acetamido-2-(carboxymethyloxy)phenyl]ethanoic acid]

Compound: Nc1ccc(O)c(C(NCCNC(C(=O)O)c2cc(N)ccc2O)C(=O)O)c1 (stereo not shown) [Example X, […][(2-HYDROXY-5AMINOPHENYL)ACETIC ACID], reference compound]
% Injected Dose in Liver [1, 8]: 24%

percent complexation ([2]; Sm, pH about 7, Example XXIII): 96%
% Complexed ([7]; Table VI, pH 1, about 5 minutes): 91%
% Complexed ([7]; Table VI, pH 2, about 5 minutes): 88%
% Complexed ([7]; Table VI, pH 3, about 5 minutes): 92%
% Complexed ([7]; Table VI, pH 5, about 5 minutes): 96%
% Complexed ([7]; Table VI, pH 7, about 5 minutes): 96%
% Complexed ([7]; Table VI, pH 9, about 5 minutes): 99%
% Complexed ([7]; Table VI, pH 12, about 5 minutes): 98%
% Complexed ([7]; Table VI, pH 13, about 5 minutes): 99%
Compound: 2-[{2-[(2{[B IS(CARBOXYMETHYL)]AMINO}ETHYL) (CARBOXYMETHYL) AMINO]ETHYL} (CARBOXYMETHYL) AMINO]-2-[5-AMINO-2-(CARBOXYMETHYLOXY)PHENYL]ETHANOIC ACID, SAMARIUM COMPLEX [XXIII]

percent Sm that was complexed ([2]; about pH 7.5, Example XXII): 100%
% Complexed ([7]; Table V, pH 1, 5-10 minutes): 98%
% Complexed ([7]; Table V, pH 2, 5-10 minutes): 100%
% Complexed ([7]; Table V, pH 3, 5-10 minutes): 100%
% Complexed ([7]; Table V, pH 4, 5-10 minutes): 100%
% Complexed ([7]; Table V, pH 5, 5-10 minutes): 100%
% Complexed ([7]; Table V, pH 7, 5-10 minutes): 100%
% Complexed ([7]; Table V, pH 9, 5-10 minutes): 100%
% Complexed ([7]; Table V, pH 11, 5-10 minutes): 100%
% Complexed ([7]; Table V, pH 13, 5-10 minutes): 100%
Compound: 2-[BIS(2-{[(BIS(CARBOXYMETHYL)] AMINO}ETHYL)AMINO]-2-[5-AMINO-2-(CARBOXYMETHYLOXY) PHENYL]ETHANOIC ACID AND 2-[{2-[(2{[BIS(CARBOXYMETHYL)]AMINO}ETHYL) (CARBOXYMETHYL)AMINO]ETHYL}(CARBOXYMETHYL)AMINO]-2-[5-AMINO-2-(CARBOXYMETHYLOXY)PHENYL]ETHANOIC ACID, SAMARIUM COMPLEX [XXII]

% Complex ([3]; ligand/metal 10:1): 99%
% Injected Dose in Liver [4]: 0.38%
Compound: Nc1ccc(O)c(C(C(=O)O)N(CCN(CC(=O)O)CC(=O)O)CC(=O)O)c1 (stereo not shown) [Example 5, 2-[(2-{[BIS(CARBOXYMETHYL)]-AMINO}ETHYL) (CARBOXYMETHYL)AMINO]-2-(5-AMINO-2HYDROXYPHENYL)ETHANOIC ACID]

% Complex ([3]; ligand/metal 10:1): 99%
% Complex ([3]; ligand/metal ratio about 1:1): 98%
Compound: CC(=O)Nc1cc(CN(CCN(CC(=O)O)CC(=O)O)CC(=O)O)c(O)c(CN(CCN(CC(=O)O)CC(=O)O)CC(=O)O)c1 [Example 11]

% Complex [2, 9]: > 99%
Compound: Nc1ccc(OCC(=O)O)c(C(C(=O)O)N(CCN(CCN(CC(=O)O)CC(=O)O)CC(=O)O)CC(=O)O)c1 (stereo not shown) [Example 8, 2-[{2-[(2-{[BIS(CARBOXYMETHYL)]-AMINO}ETHYL) (CARBOXYMETHYL) AMINO]ETHYL}(CARBOXYMETHYL)AMINO ]-2-[5-AMINO-2- CARBOXYMETHYLOXY)PHENYL]ETHANOIC ACID]

Compound: [Cl][Sm]([Cl])[Cl] [SmCl3, samarium chloride, reference compound]
% Injected Dose in Liver ([1]; Sm injected as samarium chloride in unchelated form): 39%
